Test results taken from patent publication US20080070867A1, “2-Imidazolone and 2-Imidazolidinone Heterocyclic Inhibitors of Tyrosine Phosphatases” (Metabasis Therapeutics, Inc., priority 2005, published 2008).

Each molecule was assayed against T1, Human recombinant PTP-1B (Homo sapiens, UniProt P18031) (assay: Assay for PTP-1B Activity (pNPP substrate)). Details: human recombinant PTP-1B (1-321) GST fusion, 2 mM pNPP, pH 7.4, 30° C., 20 min; read-out: Activity Code (IC50 range).
T1 construct: Human recombinant PTP-1B, containing amino acids 1-321, fused to GST enzyme; GST (glutathione S-transferase)
T1 sequence (P18031 1-321): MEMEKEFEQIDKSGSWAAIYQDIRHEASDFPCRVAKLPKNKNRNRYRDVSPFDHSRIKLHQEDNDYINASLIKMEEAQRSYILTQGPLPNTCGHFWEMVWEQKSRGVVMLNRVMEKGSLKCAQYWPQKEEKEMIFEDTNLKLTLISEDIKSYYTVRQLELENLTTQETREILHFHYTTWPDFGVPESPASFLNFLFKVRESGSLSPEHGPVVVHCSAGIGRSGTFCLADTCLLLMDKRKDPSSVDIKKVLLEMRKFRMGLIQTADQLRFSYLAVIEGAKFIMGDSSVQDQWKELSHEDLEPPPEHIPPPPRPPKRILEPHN
Type: biochemical
From the text: The activity of the compounds as modulators of protein tyrosine phosphatase, including PTP-1B, may be measured in standard assays (see, e.g., Examples 41 and 42). Briefly, the assay described herein employs human recombinant PTP-1B and a pNPP substrate in a rescue assay.
Assay for PTP-1B Activity
Enzyme: Human recombinant PTP-1B, containing amino acids 1-321, fused to GST enzyme (glutathione S-transferase) purified by affinity chromatography (Huyer et al, 1997, J. Biol. Chem., 272, 843-852).
pNPP: p-Nitrophenyl Phosphate (Calbiochem)
Assay Buffer: 50 mM HEPES (pH 7.4), 100 mM NaCl, 2 mM EDTA, 3 mM DTT
(5×) pNPP substrate: 10 mM pNPP in assay buffer
Enzyme: 1 mg/ml PTP1B (1-321), dilute 1:200 in assay buffer
Assay buffer: 50 mM HEPES (pH 7.4), 100 mM NaCl, 2 mM EDTA, 3 mM DTT
Enzyme dilution buffer: 50 mM HEPES (pH 7.4), 100 mM NaCl, 2 mM EDTA, 3 mM DTT
Substrate 198 mM p-Nitrophenyl Phosphate (pNPP) store at 4° C.
The assay was carried out at 30° C. in 96 well plates. The reaction mixture in 60 ul contained 50 mM HEPES (pH 7.4), 100 mM NaCl, 2 mM EDTA, 3 mM DTT, and 2 mM p-Nitrophenyl Phosphate (pNPP). 5 ul of the test compound (inhibitor) dissolved in DMSO or DMSO alone for control was added to each well and the plate was mixed for 2 min. The reaction was initiated by adding 20 ul of diluted PTP1B (5 ng/ul in 50 mM HEPES (pH 7.4), 100 mM NaCl, 2 mM EDTA, 3 mM DTT). After 20 min at 30° C., the enzyme reaction was terminated by adding 100 ul of 2 M K2CO3 to each well. The phosphatase activity was detected by using Victor II plate reader (Wallac) with absorbance detection at 405 nm. All the assays were done at least in duplicate. The initial rate of pNP is plotted against the concentration of inhibitor.
Work on CS(=O)(=O)c1ccc(Cn2ccn(Cc3ccc(C(F)(F)P(=O)(O)O)c(Br)c3)c2=O)cc1 [Compound 50, ({2-Bromo-4-[3-(4-methanesulfonyl-benzyl)-2-oxo-2,3-dihydro-imidazol-1-ylmethyl]-phenyl}-difluoro-methyl)-phosphonic acid] yielded an IC50 of 250 to 2500 nM. COC(=O)COc1ccc(-c2cn(C3CC3)c(=O)n2Cc2ccc(C(F)(F)P(=O)(O)O)c(Br)c2)cc1 [Compound 51, (4-{3-[3-Bromo-4-(difluoro-phosphono-methyl)-benzyl]-1-cyclopropyl-2-oxo-2,3-dihydro-1H-imidazol-4-yl}-phenoxy)-acetic acid methyl ester] gave an IC50 of 100 to 249 nM. With O=C(O)COc1ccc(-c2cn(C3CC3)c(=O)n2Cc2ccc(C(F)(F)P(=O)(O)O)c(Br)c2)cc1 [Compound 52, (4-{3-[3-Bromo-4-(difluoro-phosphono-methyl)-benzyl]-1-cyclopropyl-2-oxo-2,3-dihydro-1H-imidazol-4-yl}-phenoxy)-acetic acid] the IC50 was under 99 nM. CC(C)(C)C(=O)OCOC(=O)c1ccc(-c2cn(Cc3ccccc3)c(=O)n2Cc2ccc(C(F)(F)P(=O)(O)OCOC(=O)C(C)(C)C)c(Br)c2)cc1 [Compound 53, 4-[1-Benzyl-3-(3-bromo-4-{[(2,2-dimethyl-propionyloxy-methoxy)-hydroxy-phosphoryl]-difluoro-methyl}-benzyl)-2-oxo-2,3-dihydro-1H-imidazol-4-yl]-benzoic acid 2,2-dimethyl-propionyloxymethyl ester] showed an IC50 of 2500 to 25000 nM. In the case of COC(=O)c1ccc(Cn2cc(-c3ccccc3)n(Cc3ccc(C(F)(F)P(=O)(O)O)c(Br)c3)c2=O)cc1 [Compound 54, 4-{3-[3-Bromo-4-(difluoro-phosphono-methyl)-benzyl]-2-oxo-4-phenyl-2,3-dihydro-imidazol-1-ylmethyl}-benzoic acid methyl ester], the IC50 is reported as 100 to 249 nM. O=C(O)c1ccc(Cn2cc(-c3ccccc3)n(Cc3ccc(C(F)(F)P(=O)(O)O)c(Br)c3)c2=O)cc1 [Compound 55, 4-{3-[3-Bromo-4-(difluoro-phosphono-methyl)-benzyl]-2-oxo-4-phenyl-2,3-dihydro-imidazol-1-ylmethyl}-benzoic acid] was tested, and the IC50 was 250 to 2500 nM. For CC(C)(C)C(=O)OCOP(=O)(O)C(F)(F)c1ccc(Cn2c(-c3ccc(C#N)cc3)cn(Cc3ccccc3)c2=O)cc1Br [Compound 56, 2,2-Dimethyl-propionic acid ({4-[3-benzyl-5-(4-cyano-phenyl)-2-oxo-2,3-dihydro-imidazol-1-ylmethyl]-2-bromo-phenyl}-difluoro-methyl)-hydroxy-phosphinoyloxymethyl ester], the IC50 was 2500 to 25000 nM. In the case of CC(C)(C)C(=O)OCOP(=O)(OCOC(=O)C(C)(C)C)C(F)(F)c1ccc(Cn2c(-c3ccc(C#N)cc3)cn(Cc3ccccc3)c2=O)cc1Br [Compound 57, 2,2-Dimethyl-propionic acid ({4-[3-benzyl-5-(4-cyano-phenyl)-2-oxo-2,3-dihydro-imidazol-1-ylmethyl]-2-bromo-phenyl}-difluoro-methyl)-(2,2-dimethyl-propionyloxy-methoxy)-phosphinoyloxymethyl ester], the IC50 is reported as over 25000 nM. CS(=O)(=O)c1ccc(Cn2cc(-c3ccccc3)n(Cc3ccc(C(F)(F)P(=O)(O)O)c(Br)c3)c2=O)cc1 [Compound 58, ({2-Bromo-4-[3-(4-methanesulfonyl-benzyl)-2-oxo-5-phenyl-2,3-dihydro-imidazol-1-ylmethyl]-phenyl}-difluoro-methyl)-phosphonic acid] gave an IC50 of 250 to 2500 nM. With CC(C)OC(=O)OC(C)OC(=O)c1ccc(-c2cn(Cc3ccccc3)c(=O)n2Cc2ccc(C(F)(F)P(=O)(O)OC(C)OC(=O)OC(C)C)c(Br)c2)cc1 (stereo not drawn) [Compound 59, 4-[1-Benzyl-3-(3-bromo-4-{difluoro-[hydroxy-(1-isopropoxy-carbonyloxy-ethoxy)-phosphoryl]-methyl}-benzyl)-2-oxo-2,3-dihydro-1H-imidazol-4-yl]-benzoic acid 1-isopropoxy-carbonyloxy-ethyl ester] the IC50 was 2500 to 25000 nM. COc1cccc(Cn2ccn(Cc3ccc(C(F)(F)P(=O)(O)O)c(Br)c3)c2=O)c1 [Compound 60, ({2-Bromo-4-[3-(3-methoxy-benzyl)-2-oxo-2,3-dihydro-imidazol-1-ylmethyl]-phenyl}-difluoro-methyl)-phosphonic acid] was tested, and the IC50 was 2500 to 25000 nM. With CCOC(=O)c1ccc(-n2ccn(Cc3ccc(C(F)(F)P(=O)(O)O)c(Br)c3)c2=O)cc1 [Compound 61, 4-{3-[3-Bromo-4-(difluoro-phosphono-methyl)-benzyl]-2-oxo-2,3-dihydro-imidazol-1-yl}-benzoic acid ethyl ester] the IC50 was 250 to 2500 nM. COC(=O)c1cccc(-c2cn(C3CC3)c(=O)n2Cc2ccc(C(F)(F)P(=O)(O)O)c(Br)c2)c1 [Compound 62, 3-{3-[3-Bromo-4-(difluoro-phosphono-methyl)-benzyl]-1-cyclopropyl-2-oxo-2,3-dihydro-1H-imidazol-4-yl}-benzoic acid methyl ester] gave an IC50 of 250 to 2500 nM. Molecule O=C(O)c1cccc(-c2cn(C3CC3)c(=O)n2Cc2ccc(C(F)(F)P(=O)(O)O)c(Br)c2)c1 [Compound 63, 3-{3-[3-Bromo-4-(difluoro-phosphono-methyl)-benzyl]-1-cyclopropyl-2-oxo-2,3-dihydro-1H-imidazol-4-yl}-benzoic acid] has an IC50 of 250 to 2500 nM. In the case of CC(C)(C)C(=O)OCOP(=O)(O)C(F)(F)c1ccc(Cn2c(-c3ccc(S(C)(=O)=O)cc3)c[nH]c2=O)cc1Br [Compound 64, 2,2-Dimethyl-propionic acid ({2-bromo-4-[5-(4-methanesulfonyl-phenyl)-2-oxo-2,3-dihydro-imidazol-1-ylmethyl]-phenyl}-difluoro-methyl)-hydroxy phosphinoyloxymethyl ester], the IC50 is reported as 2500 to 25000 nM. Molecule CC(C)OC(=O)OC(C)OP(=O)(O)C(F)(F)c1ccc(Cn2c(-c3ccc(S(C)(=O)=O)cc3)c[nH]c2=O)cc1Br (stereo not drawn) [Compound 65, ({2-Bromo-4-[5-(4-methanesulfonyl-phenyl)-2-oxo-2,3-dihydro-imidazol-1-ylmethyl]phenyl}-difluoro-methyl) phosphonic acid mono-(1-isopropoxy-carbonyloxy-ethyl) ester] has an IC50 of 2500 to 25000 nM. CCOC(=O)n1cc(-c2ccc(C(=O)OC)cc2)n(Cc2ccc(C(F)(F)P(=O)(O)OCOC(=O)C(C)(C)C)c(Br)c2)c1=O [Compound 66, 3-(3-Bromo-4-{[(2,2-dimethyl-propionyloxy-methoxy)-hydroxy-phosphoryl]-difluoro-methyl}-benzyl)-4-(4-methoxycarbonyl-phenyl)-2-oxo-2,3-dihydro-imidazole-1-carboxylic acid ethyl ester] gave an IC50 of over 25000 nM. With COC(=O)c1ccc(-c2cn(Cc3ccc(C(F)(F)P(=O)(O)O)c(Br)c3)c(=O)n2Cc2ccccc2)cc1 [Compound 67, 4-{3-Benzyl-1-[3-bromo-4-(difluoro-phosphono-methyl)-benzyl]-2-oxo-2,3-dihydro-1H-imidazol-4-yl}-benzoic acid methyl ester] the IC50 was 250 to 2500 nM. In the case of O=C(O)c1ccc(-c2cn(Cc3ccc(C(F)(F)P(=O)(O)O)c(Br)c3)c(=O)n2Cc2ccccc2)cc1 [Compound 68, 4-{3-Benzyl-1-[3-bromo-4-(difluoro-phosphono-methyl)-benzyl]-2-oxo-2,3-dihydro-1H-imidazol-4-yl}-benzoic acid], the IC50 is reported as 250 to 2500 nM. For Cn1cc(-c2ccc(S(C)(=O)=O)cc2)n(Cc2ccc(C(F)(F)P(=O)(O)OCOC(=O)C(C)(C)C)c(Br)c2)c1=O [Compound 69, 2,2-Dimethyl-propionic acid ({2-bromo-4-[5-(4-methanesulfonyl-phenyl)-3-methyl-2-oxo-2,3-dihydro-imidazol-1-ylmethyl]-phenyl}-difluoro-methyl)-hydroxy-phosphinoyloxymethyl ester], the IC50 was 2500 to 25000 nM. Work on CC(C)OC(=O)OC(C)OP(=O)(O)C(F)(F)c1ccc(Cn2c(-c3ccc(S(C)(=O)=O)cc3)cn(C)c2=O)cc1Br (stereo not drawn) [Compound 70, ({2-Bromo-4-[5-(4-methanesulfonyl-phenyl)-3-methyl-2-oxo-2,3-dihydro-imidazol-1-ylmethyl]-phenyl}-difluoro-methyl)-phosphonic acid mono-(1-isopropoxy-carbonyloxy-ethyl) ester] yielded an IC50 of over 25000 nM.
